The conditions of series [1]: cited from earlier work.
The conditions of series [2]: cited from earlier work. This is another data set of the same source.
For series [3] the following is noted: in vivo; cited from earlier work.
For series [4] the following is noted: in vivo, cited from earlier work.
The conditions of series [5]: in vivo; cited from earlier work. The source holds these as a separate data set.
Another series concerns multiple myeloma. Conditions: oral administration; cited from earlier work.
The conditions of series [6]: in vivo; cited from earlier work. This is another data set of the same source.
For series [7] the following is noted: mice; cited from earlier work.
The conditions of series [8]: patients with creatinine clearance >35 mL per minute; cited from earlier work.
For series [9] the following is noted: oral; cited from earlier work.
The subject of series [10] is chronic myelogenous leukemia. Conditions: previously untreated chronic myelogenous leukemia; cited from earlier work.
The subject of a further series is certain animal tumors. Conditions: in vivo; cited from earlier work.
For series [11] the following is noted: in vivo; cited from earlier work. The source holds these as a separate data set.
Series [12] has as its system Human lung carcinoma cells A549. Type of series: in vivo, mice. Conditions: 5FU 30 mg/kg intravenous daily for one week.
Series [13] has as its system Human breast carcinoma cells, MDA-MB-231. Type of series: in vivo, mice. Conditions: 5FU 30 mg/kg i.v. daily for one week.
Series [14] concerns Human colon carcinoma cells, SW-480. The format is in vivo, mice. Conditions: 5FU 30 mg/kg i.v. daily for one week.
Series [15] concerns small intestine and bone marrow cells. Conditions: mouse, in vivo.
For series [16] the test system is unchanged. Conditions: mouse, in vivo. This is another data set of the same source.
The conditions of series [17]: 10 mg daily over 2 to 3 hours IV; cited from earlier work.
For series [18] the following is noted: oral, 30 mg/m^2 to 100 mg/m^2; cited from earlier work.

Counter-ions that a name gives are not always drawn. Like-named read-outs stand apart in the source and are kept apart here. Starred links: 1 amine or outer side, 2 acyl side, 3 side chain; linkers in the order of their positions; H or OH if unused. Positions of bridges follow the written chain, without caps; N, C: chain ends. Non-standard residues stand in square brackets, D forms with d. Residues, ends and D or L forms follow the SMILES beside them. Chains are numbered I, II in the order given. Actinocin(9to1) = Cc1c2oc3c(C)ccc(C(=O)[*:1])c3nc-2c(C(=O)[*:2])c(N)c1=O; NMeV = CN[C@H](C(=O)O)C(C)C; Sar = CNCC(=O)O

For the molecule `CC[C@]1(O)C[C@H]2CN(CCc3c([nH]c4ccccc34)[C@@](C(=O)OC)(c3cc4c(cc3OC)N(C=O)[C@H]3[C@@](O)(C(=O)OC)[C@H](OC(C)=O)[C@]5(CC)C=CCN6CC[C@]43[C@@H]65)C2)C1` [Vincristine], in series [1] (in vivo), the “Absorption after oral administration” value is “Unpredictable absorption” and the Plasma protein binding result was “bind to plasma proteins”. The Terminal half-life entry in series [1] (plasma) is listed as “about 24 hours”.

For `CO[C@@]12[C@H](COC(N)=O)C3=C(C(=O)C(C)=C(N)C3=O)N1C[C@@H]1N[C@@H]12` [Mitomycin], in [2] (30 mg bolus injection), the “Time required to reduce the serum concentration by 50%” value is 17 min. Moreover, in [2] (in vivo), the “Dose excreted unchanged in the urine” value is on record as “Approximately 10%”.

Turning to `N.N.[Cl][Pt][Cl]` [Cisplatin], the Oral absorption result in series [3] was “not absorbed orally”.

In the case of `COc1cccc2c1C(=O)c1c(O)c3c(c(O)c1C2=O)C[C@@](O)(C(C)=O)C[C@@H]3O[C@H]1C[C@H](N)[C@H](O)[C@H](C)O1` [Daunorubicin, 5,12-Naphthacenedione, (8S-cis)-8-acetyl-10-(3-amino-2,3,6-trideoxy-a-L-lyxo-hexanopyranosyl)oxy)-7,8,9,10-tetrahydro-6,8,11-trihydroxy-10-methoxy hydrochloride], the Oral absorption result in [4] (po) was “poor”. Moreover, the Half-life of elimination result in series [4] was “about 19 hr”.

`CC[C@]1(O)C[C@@H]2CN(CCc3c([nH]c4ccccc34)[C@@](C(=O)OC)(c3cc4c(cc3OC)N(C)[C@H]3[C@@](O)(C(=O)OC)[C@H](OC(C)=O)[C@]5(CC)C=CCN6CC[C@]43[C@@H]65)C2)C1` [Vinblastine]: in series [1] (in vivo), the “Absorption after oral administration” value was “Unpredictable absorption”, the “Dose recovered in the feces after biliary excretion” value is “about 10%” and the Plasma protein binding entry is “bind to plasma proteins”. Besides, in series [1] (intravenous injection), the “Plasma half-life after distribution (first)” value was “approximately 1 hours” and the “Plasma half-life after distribution (second)” value was around 72000 s. Also, the “Peak concentration in plasma” value in [1] (usual clinical doses) is given as “approximately 0.4 mM”.

Regarding `O.O=P1(N(CCCl)CCCl)NCCCO1` (stereo not shown) [Cyclophosphamide, 2H-1,3,2-Oxazaphosphorin-2-amine, N,N-bis(2-chloroethyl)tetrahydro-, 2-oxide, monohydrate], the “Stability in the gastrointestinal tract” value in series [5] is “stable in the gastrointestinal tract”.

For the molecule `N[C@@H](Cc1ccc(N(CCCl)CCCl)cc1)C(=O)O` [Melphalan, 4-(bis(2-chloroethyl)amino)-L-phenylalanine], the “Patients showing a favorable response” value with multiple myeloma was “one third to one half”.

On to `COc1cccc2c1C(=O)c1c(O)c3c(c(O)c1C2=O)C[C@@](O)(C(=O)CO)C[C@@H]3O[C@H]1C[C@H](N)[C@H](O)[C@H](C)O1` [Doxorubicin, 5,12-Naphthacenedione, (8s-cis)-10-((3-amino-2,3,6-trideoxy-a-L-lyxo-hexopyranosyl)oxy)-7,8,9,10-tetrahydro-6,8,11-trihydroxy-8-(hydroxyacetyl)-1-methoxy-hydrochloride], for which, in series [6], the Absorption result is recorded as “absorbed poorly”, the Elimination half-life result is on record as “about 30 hr” and the “Excreted into the urine” value is given as “a few percent”.

Regarding `COc1cccc2c1C(=O)c1c(O)c3c(c(O)c1C2=O)C[C@@](O)([C@H](C)O)C[C@@H]3O[C@H]1C[C@H](N)[C@H](O)[C@H](C)O1` [daunorubicinol], the “Half-life of active metabolite” value in [4] is “about 27 hr”.

Take Bleomycin: in series [7], the “Concentration in hematopoietic tissue” value is listed as “low concentrations”; the “Concentration in skin, lungs, kidneys, peritoneum, and lymphatics” value is “high concentrations”. The “Serum or plasma terminal elimination half-life” value in series [8] is on record as “approximately 115 minutes”.

Take `O=C(O)CCCc1ccc(N(CCCl)CCCl)cc1` [Chlorambucil, 4-(bis(2-chlorethyl)amino)benzenebutanoic acid]: in series [9], the “Absorption from the gastrointestinal tract” value is “rapidly and completely absorbed”.

Take `CS(=O)(=O)OCCCCOS(C)(=O)=O` [busulfan, 1,4-butanediol dimethanesulfonate]: in [10], the “Adults obtaining hematologic remission” value is “Approximately 90%”.

`N[C@H](Cc1ccc(N(CCCl)CCCl)cc1)C(=O)O` [medphalan]: the “Activity against certain animal tumors relative to L-isomer” value in the series on certain animal tumors is “less active”.

Consider `Cc1c2oc3c(C)ccc(C(=O)N[C@@H]4C(=O)N[C@H](C(C)C)C(=O)N5CCC[C@H]5C(=O)N(C)CC(=O)N(C)[C@@H](C(C)C)C(=O)O[C@@H]4C)c3nc-2c(C(=O)N[C@@H]2C(=O)N[C@H](C(C)C)C(=O)N3CCC[C@H]3C(=O)N(C)CC(=O)N(C)[C@@H](C(C)C)C(=O)O[C@@H]2C)c(N)c1=O` [Actinomycin D] (I: T[dV]P[Sar][NMeV] / II: T[dV]P[Sar][NMeV]; ester I:1-I:C, II:1-II:C; linker I:N-II:N via Actinocin(9to1)), for which, in [11], the Blood-brain barrier passage entry is on record as “does not pass the blood-brain barrier”, the “Dose excreted intact into the bile” value is “Half of the dose”, the “Dose excreted intact into the urine” value is 10% and the Half-life entry is listed as “about 36 hr”.

As to `O=c1[nH]cc(F)c(=O)[nH]1` [5FU, Fluorouracil], the Tumor volume response result in series [12], in [13] and in series [14] was “marked tumor regression” in each case. The “Damage to small intestine and bone marrow cells” value in series [15] is “severe damages”. The Bone marrow cellularity result in series [16] was “Bone marrow cell exhaustion”. Besides, the “Damage to the small intestine” value in [16] is listed as “severe damages”.

For the molecule arsenic (III) oxide [Arsenic Trioxide], in [17], the “Plasma arsenic mean peak level” value was 6.85 µmol/L, the t1/2α was 0.89 ± 0.29 h and the t1/2β is 12.13 ± 3.31 h.

Take `O=NN(CCCl)C(=O)NC1CCCCC1` [Lomustine, 1-(2-chloro-ethyl)-3-cyclohexyl-1 nitrosourea]: the “Radioactivity excreted as degradation products within 24 hours” value in [18] was “about half”.

(Values after US8834938B2, “Use of arsenic for cancer therapy protection” (Board of Regents of the University of Texas System, priority 2011, dated 2014).)
